Measured values as given in patent US8563511B2, “Treatment of pulmonary hypertension using an agent that inhibits a tissue factor pathway” (University of Rochester, priority 2004, dated 2013).

Legend:
Male Sprague Dawley rats = experiment: Induction of PAH by MCT after sham surgery or pneumonectomy in young rats; format: in vivo, rat; settings: for pulmonary pressure (RVSP, mean PA): FIG. 1
Protocol: All animal studies were approved by the IACUC at the University of Rochester prior to the initiation of any animal experiments. Male Sprague Dawley rats weighing between 200 and 250 g were shaved and then endotracheally intubated with an 18 G angiocatheter after anesthesia with ketamine and xylazine (70 mg/kg ketamine and 50 mg/kg xylazine delivered intraperitoneal in 0.9% saline). Flunixin was administered 0.1 mg/kg SQ at the beginning of the case to provide 24 hours postoperative analgesia. Animals were ventilated (respiratory rate 70-90, adjusted while monitoring the animal to prevent spontaneous respiratory effort) at 10-12 cc/kg (Harvard Apparatus) and the left chest was prepared with Betadine scrub. The fourth or fifth intercostal space was identified, and an incision was made with care to avoid lung damage while ventilation was briefly interrupted. A rib retractor was used to expose the thoracic cavity, and the lung was lifted gently to expose the hilar structures. Two ligaclips (Ektacon LS200, Johnson & Johnson) were applied proximally before the left lung was cut at the distal hilar structure. A polyethylene tube with holes at the end and cut into the sides was inserted through the sixth intercostal space and laid in the thoracic cavity where the left lung had been. Two absorbable sutures were used to approximate the ribs, and then the muscles and subcutaneous tissue were approximated with an additional layer of sutures. Care was taken to carefully seal the thoracostomy tube with tissue so that the hole would close spontaneously when the thoracostomy tube was removed. Suction was applied to the tubing at the earliest possible time once a seal had been achieved (sometimes before the subcutaneous tissues were closed). Antisedan (Orion) was administered 0.2 mg/kg IM, and the skin was closed with 9 mm Autoclips (Stoelting). The animal was taken off the ventilator and monitored for spontaneous respirations while suction was applied to the thoracostomy tube. The rat was required to make significant respiratory effort and begin to right itself on the table before the endotracheal and thoracostomy tubes were removed. […] A 30 to 40% mortality is routinely encountered in the 24 hour perioperative period. For the sham surgery, an incision was made to the chest wall. With great care, ventilation was stopped, the chest was listed with forceps, and a small incision was made in the fourth or fifth intercostal space. If there was any evidence for lung damage, the case was converted to a pneumonectomy. A smaller polyethylene tube was inserted through the same hole and laid between the lung and the chest wall. The ribs were approximated with one or two sutures as appropriate. The remainder of the procedure was identical. The animal was ventilated for several minutes after the chest was closed but before sedation was reversed to make sure that total time under anesthesia was approximately the same as in pneumonectomy cases.
(§1) One week later, animals were given MCT (dissolved 60 mg/ml in DMSO) as a subcutaneous injection (vehicle animals were treated with the same volume of DMSO alone). They were monitored and allowed ordinary chow and water for 28 days (in the group of animals which were utilized to generate FIG. 2, two of the animals initially treated with pneumonectomy and MCT died spontaneously on days 18 and 23, so the remaining four animals were sacrificed at Day 24).
Exercise capacity was monitored 5 and 10 days after MCT treatment and then more frequently as the disease progressed. Rats were placed on a treadmill (Columbus Instruments) that stimulates them with a mild electric shock when they fail to run. Each assessment lasted for 16 min: 2 min. @ 10 m/min, 4 min @ 15 m/min, 5 min @ 20 m/min, and 5 min @ 25 m/min. The maximum distance run was 305 m. This procedure has been specifically approved by the local IACUC.
Initially, a grid intensity of 70% maximum and frequency of 2 Hz was used. […]

[1] = system: Pneum/MCT rats (rat model of severe pulmonary arterial hypertension); experiment: Treatment of PAH in pneumonectomy + MCT young rat model; format: in vivo; settings: bosentan 100 mg/kg daily
Protocol: All animal studies were approved by the IACUC at the University of Rochester prior to the initiation of any animal experiments. Male Sprague Dawley rats weighing between 200 and 250 g were shaved and then endotracheally intubated with an 18 G angiocatheter after anesthesia with ketamine and xylazine (70 mg/kg ketamine and 50 mg/kg xylazine delivered intraperitoneal in 0.9% saline). Flunixin was administered 0.1 mg/kg SQ at the beginning of the case to provide 24 hours postoperative analgesia. […] The animal was taken off the ventilator and monitored for spontaneous respirations while suction was applied to the thoracostomy tube. […]
as §1
Exercise capacity was monitored 5 and 10 days after MCT treatment and then more frequently as the disease progressed. […]

[2] = system: patients with pulmonary hypertension; settings: cited from earlier work

C[C@H]1C(=O)O[C@@H]2CCN3CC=C(COC(=O)[C@](C)(O)[C@]1(C)O)[C@H]23 [MCT, monocrotaline]
(RV + S)/LV (Male Sprague Dawley rats; MCT after pneumonectomy): 1.8 ± 0.6 | (RV + S)/Weight (Male Sprague Dawley rats; MCT after pneumonectomy): 2.7 ± 0.3 | LV/Weight (Male Sprague Dawley rats; MCT after pneumonectomy): 1.6 ± 0.5 | pulmonary pressure (RVSP, mean PA) (Male Sprague Dawley rats; MCT after pneumonectomy): near systemic elevations in pulmonary pressure | (RV + S)/LV (Male Sprague Dawley rats; MCT after sham surgery): 1.20 ± 0.3 | (RV + S)/Weight (Male Sprague Dawley rats; MCT after sham surgery): 1.9 ± 0.4 | LV/Weight (Male Sprague Dawley rats; MCT after sham surgery): 1.6 ± 0.2 | pulmonary pressure (RVSP, mean PA) (Male Sprague Dawley rats; MCT following sham surgery): modest PAH | exercise capacity (16 min treadmill protocol) (Male Sprague Dawley rats; Pneum/MCT rats, by day 17 after MCT): unable to complete the 16 min protocol | exercise capacity (16 min treadmill protocol) (Male Sprague Dawley rats; Sham/MCT rats): consistently completed the exercise protocol

COc1ccccc1Oc1c(NS(=O)(=O)c2ccc(C(C)(C)C)cc2)nc(-c2ncccn2)nc1OCCO [bosentan]
PA pressure [1]: only a modest elevation in PA pressure

CC(=O)CC(c1ccccc1)c1c(O)c2ccccc2oc1=O (stereo not shown) [warfarin]
survival ([2]; Kawut et al., patients also on advanced therapies such as prostacyclin): survival benefit | mortality at 5 years ([2]; Rich et al., prospective observational trial): decreased mortality
